# Measurements: ChEMBL document CHEMBL1201862, “PubChem BioAssay data set” (2004)
# The source made the active and inactive calls.
# What was measured:
# [1] = intracellular Trypanosoma cruzi inhibitors in host cells – cell-based, plate reader, cherry-pick samples, set 3, dose response (AID 651818); assay type: functional;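 note: compounds incubated with infected cells for about four days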
# P388/ADR = test: cells; assay type: functional; details: Mus musculus
# SN12K1 = test: cells; assay type: functional; details: Homo sapiens
# P388 = test: cells; assay type: functional; details: Mus musculus
# [2] = blockers of HIV-1 envelope-mediated cell-cell fusion – cherry-pick, dose response (AID 652057); assay type: functional, cell-based
# [3] = HIV-1 AD8 envelope cell-cell fusion blockers – cherry-pick, dose response (AID 652062); assay type: functional, cell-based;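 note: luciferase signal from cell-cell fusion driven by HIV-1 clade B AD8 Env; potency is for inhibitors of fusion seen as a drop in luminescence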
# Genome polyprotein = Genome polyprotein (dengue virus type 2, UniProt P29990); test: flavivirus cap methylation enzyme inhibition – biochemical, confirmation dose response, primary screen (AID 588689); assay type: functional
# Sequence of Genome polyprotein (P29990 2492-3391 limits assumed): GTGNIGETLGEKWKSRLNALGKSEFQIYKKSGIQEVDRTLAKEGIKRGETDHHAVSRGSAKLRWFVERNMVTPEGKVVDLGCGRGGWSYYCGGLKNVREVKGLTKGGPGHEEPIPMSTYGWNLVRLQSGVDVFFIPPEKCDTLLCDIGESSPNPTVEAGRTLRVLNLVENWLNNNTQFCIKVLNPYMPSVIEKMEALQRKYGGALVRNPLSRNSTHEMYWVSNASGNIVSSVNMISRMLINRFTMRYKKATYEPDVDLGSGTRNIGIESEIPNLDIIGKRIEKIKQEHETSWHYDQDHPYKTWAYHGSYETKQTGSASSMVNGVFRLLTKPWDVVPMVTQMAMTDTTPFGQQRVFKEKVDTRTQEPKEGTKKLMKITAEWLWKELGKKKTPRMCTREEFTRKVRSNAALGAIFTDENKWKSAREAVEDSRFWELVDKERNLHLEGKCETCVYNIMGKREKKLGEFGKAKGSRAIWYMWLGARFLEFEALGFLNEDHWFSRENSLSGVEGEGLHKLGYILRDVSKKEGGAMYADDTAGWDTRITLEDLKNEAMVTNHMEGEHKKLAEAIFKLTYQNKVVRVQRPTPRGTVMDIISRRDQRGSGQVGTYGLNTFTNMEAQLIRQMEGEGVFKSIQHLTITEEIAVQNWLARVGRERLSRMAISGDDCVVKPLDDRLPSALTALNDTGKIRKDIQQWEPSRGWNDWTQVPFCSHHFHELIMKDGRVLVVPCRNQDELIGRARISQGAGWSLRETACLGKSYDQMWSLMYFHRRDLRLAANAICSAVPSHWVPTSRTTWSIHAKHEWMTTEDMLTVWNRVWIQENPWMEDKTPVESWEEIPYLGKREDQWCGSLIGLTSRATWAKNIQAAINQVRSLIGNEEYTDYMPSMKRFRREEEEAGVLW
# [4] = target: T1, Polyadenylate-binding protein 1 (Homo sapiens, UniProt P11940); test: MLLE binding blockers, Cy5 peptide tracer – biochemical, fluorescence polarization, Cy5-PAM2 peptide, secondary, miRNA deadenylation inhibitor project, dose response (AID 602260); assay type: functional; details: read-out: IC50_Mean
# T1 sequence (P11940 whole entry, the tested form may be a part): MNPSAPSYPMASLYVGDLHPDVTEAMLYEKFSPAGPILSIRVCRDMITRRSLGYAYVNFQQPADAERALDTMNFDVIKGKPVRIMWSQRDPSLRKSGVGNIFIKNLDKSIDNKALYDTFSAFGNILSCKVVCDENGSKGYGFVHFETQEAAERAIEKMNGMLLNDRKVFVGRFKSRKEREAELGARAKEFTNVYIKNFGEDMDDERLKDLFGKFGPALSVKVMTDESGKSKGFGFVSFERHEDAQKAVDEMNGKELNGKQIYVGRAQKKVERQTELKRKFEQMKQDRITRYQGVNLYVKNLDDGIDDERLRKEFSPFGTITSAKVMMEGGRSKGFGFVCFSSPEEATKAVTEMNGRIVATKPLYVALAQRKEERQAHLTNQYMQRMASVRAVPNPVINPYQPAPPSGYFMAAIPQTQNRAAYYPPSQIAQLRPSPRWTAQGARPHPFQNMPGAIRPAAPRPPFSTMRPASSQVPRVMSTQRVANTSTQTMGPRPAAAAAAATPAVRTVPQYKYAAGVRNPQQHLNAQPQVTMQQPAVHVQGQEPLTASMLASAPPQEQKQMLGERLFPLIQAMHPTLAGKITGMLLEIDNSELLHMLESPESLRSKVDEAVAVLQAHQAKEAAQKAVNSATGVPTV
# [5] = target: T1, Polyadenylate-binding protein 1; test: MLLE domain peptide-binding blockers, IC50 – biochemical, fluorescence polarization, FITC-PAM2 peptide, dose response (AID 602259); assay type: functional; details: read-out: IC50_Mean
# [6] = target: Heat shock protein HSP 90-alpha (Homo sapiens, UniProt P07900); assay type: functional, organism-based
# [7] = target: T2, Short transient receptor potential channel 4 (Mus musculus, UniProt Q9QUQ5); test: block of DAMGO-driven TRPC4 calcium entry – cell-based, HEK293 TRPC4/mu-opioid, Fluo-4 calcium, dose response (AID 434942); assay type: functional;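 note: potency of inhibitors blocking the TRPC4 calcium response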
# T2 sequence (Q9QUQ5 whole entry): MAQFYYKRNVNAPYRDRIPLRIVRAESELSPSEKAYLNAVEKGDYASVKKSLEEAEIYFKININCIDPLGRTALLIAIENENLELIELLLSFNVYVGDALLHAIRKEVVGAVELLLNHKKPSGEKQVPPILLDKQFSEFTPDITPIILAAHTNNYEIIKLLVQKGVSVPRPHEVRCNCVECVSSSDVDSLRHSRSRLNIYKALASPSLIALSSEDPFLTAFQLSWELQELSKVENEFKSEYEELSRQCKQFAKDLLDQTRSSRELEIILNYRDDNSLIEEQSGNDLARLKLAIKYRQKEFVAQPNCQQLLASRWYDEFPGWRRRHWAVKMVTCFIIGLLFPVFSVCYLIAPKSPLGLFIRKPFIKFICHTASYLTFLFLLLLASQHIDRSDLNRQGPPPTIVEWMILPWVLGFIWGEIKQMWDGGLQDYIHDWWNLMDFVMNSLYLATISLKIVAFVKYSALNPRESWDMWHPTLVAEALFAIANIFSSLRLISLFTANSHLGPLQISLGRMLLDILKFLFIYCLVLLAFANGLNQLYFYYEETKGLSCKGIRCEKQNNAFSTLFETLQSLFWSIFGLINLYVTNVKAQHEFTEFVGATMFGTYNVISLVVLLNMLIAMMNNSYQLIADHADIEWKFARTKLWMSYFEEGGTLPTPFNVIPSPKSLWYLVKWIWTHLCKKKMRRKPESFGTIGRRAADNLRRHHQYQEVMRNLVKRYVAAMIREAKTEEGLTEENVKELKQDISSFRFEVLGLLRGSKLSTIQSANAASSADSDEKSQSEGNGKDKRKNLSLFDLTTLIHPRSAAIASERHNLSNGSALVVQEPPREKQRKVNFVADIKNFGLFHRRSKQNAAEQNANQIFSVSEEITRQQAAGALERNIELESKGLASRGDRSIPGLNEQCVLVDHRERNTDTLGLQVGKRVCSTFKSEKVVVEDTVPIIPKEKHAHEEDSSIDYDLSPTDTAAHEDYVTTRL
structure (smiles),measurement,setting,value
C[C@H](CO)N1C[C@H](C)[C@@H](CN(C)Cc2ccc(Oc3ccccc3)cc2)Oc2c(NC(=O)Nc3ccccc3)cccc2C1=O,AC50,[1],2.17 µM (active)
CN(C)C(=O)OCOC(=O)N(C)C,GI50,P388/ADR,> 100 µM (inactive)
same,GI50,SN12K1,> 100 µM (inactive)
same,GI50,P388,66.8 µM (inactive)
C[C@H](CO)N1C[C@H](C)[C@H](CN(C)C(=O)C2CC2)OCc2ccccc2-c2c(n(C)c3ccccc23)C1=O,AC50,[2],0.426 µM (active)
same,AC50,[3],0.836 µM (active)
C[C@H](CO)N1C[C@H](C)[C@H](CN(C)C(=O)Nc2ccc(C(F)(F)F)cc2)Oc2ccc(NC(=O)Nc3ccc(C(F)(F)F)cc3)cc2C1=O,AC50,[1],4.23 µM (active)
C[C@@H]1CN([C@H](C)CO)C(=O)c2cccc(NC(=O)Nc3ccc(C(F)(F)F)cc3)c2O[C@@H]1CN(C)Cc1ccc2c(c1)OCO2,AC50,[1],2.54 µM (active)
C[C@H]1CN([C@@H](C)CO)C(=O)c2cc(NC(=O)Nc3cccc4ccccc34)ccc2O[C@@H]1CN(C)Cc1ccc(Cl)c(Cl)c1,AC50,[1],3.43 µM (active)
N#Cc1c(N)sc(=S)c2c1CCCC2,IC50,Genome polyprotein,90.8 µM (active)
same,IC50,[4],> 66 µM (inactive)
same,IC50,[5],57.4 µM (inactive)
O=C1c2cc(Cl)ccc2-c2c(O)cc(Cl)cc21,AC50,[6],2.08 µM (active)
C[C@H]1CN([C@@H](C)CO)C(=O)Cc2cc(NC(=O)Nc3ccccc3)ccc2O[C@H]1CN(C)Cc1ccc(C(=O)Nc2ccccc2N)cc1,AC50,[1],2.93 µM (active)
COc1cccc(NC(=O)CCC(=O)N2CC(C)Oc3ccc(C)cc32)c1 (stereo not given),EC50,[7],0.531 µM (active)
